Source: patent publication US7344706B2, “UV absorber compositions comprising a hydroxyphenyltriazine compound” (Ciba Specialty Chemicals Corp., priority 2002, dated 2008)

Tests used:
[1] = Solubility in cosmetic oils; format: physicochemical; conditions: percentages refer to weight
[2] = Spectral properties (UV absorption); format: physicochemical
Text: Spectral Properties: [table]

## CCCCC(CC)COc1ccc(-c2nc(-c3ccc(OC)cc3)nc(-c3ccc(OCC(CC)CCCC)cc3OCC(CC)CCCC)n2)c(O)c1 (centres unmarked) [Example 1, 2-((2,4-(2-ethyl-hexyloxy)-phenyl))-4-((2-hydroxy-4-(2-ethyl-hexyloxy)-phenyl))-6-(4-methoxyphenyl)-(1,3,5)-triazine]
[1]; solvent di-C12-C13alkylmalates
  solubility in di-C12-C13alkylmalates: > 25%
[1]; solvent glyceryl-trioctanoate
  solubility in glyceryl-trioctanoate: > 30%
[2]
  ε: 50443 liters/(mol/cm)
  λmax: 322 nm
[2]; in dioxane
  E [1%, 1 cm] (in dioxane): 681.62
